The source of these data is ChEMBL document CHEMBL3872207, “Aromatic heterocyclic esters of podophyllotoxin exert anti-MDR activity in human leukemia K562/ADR cells via ROS/MAPK signaling pathways” (Eur J Med Chem, 2016).

For one experiment, the system named is K562. As to the kind of experiment: Resistance index, ratio of IC50 for human K562/ADR cells to IC50 for human K562 cells. The format is functional.
Experiment [1] can be described thus: Antiproliferative activity against human K562 cells measured after 72 hrs by CCK8 assay. In kind it is functional, cell-based. Particulars: K562, 72 h. A general note: Formazan colour is commonly taken as a measure of viable cells.
The nature of experiment [2]: Antiproliferative activity against human K562/ADR cells measured after 72 hrs by CCK8 assay. In kind it is functional, cell-based.
A short description of experiment [3]: Potency index, ratio of etoposide IC50 to compound IC50 for antiproliferative activity against human K562/ADR cells. In kind it is functional.
Experiment [4] can be described thus: Potency index, ratio of doxorubicin IC50 to compound IC50 for antiproliferative activity against human K562/ADR cells. In kind it is functional.

Broadly, the IC50 is the concentration that inhibits the measured activity by half. A lower IC50 goes with higher potency. For the molecule `COc1cccc2c1C(=O)c1c(O)c3c(c(O)c1C2=O)C[C@@](O)(C(=O)CO)C[C@@H]3O[C@H]1C[C@H](N)[C@H](O)[C@H](C)O1` [DOXORUBICIN], the “Ratio IC50” value in the experiment on K562 turned out to be 85.359. The IC50 in experiment [1] came out at 220 nM; in experiment [2], 18800 nM.

On to `COc1cc([C@@H]2c3cc4c(cc3[C@H](OC(=O)c3cn(C)cn3)[C@H]3COC(=O)[C@H]23)OCO4)cc(OC)c1OC`, for which the “Ratio IC50” value with K562 was found to be 10.86. For the same molecule, the half-maximal inhibitory concentration (IC50) in experiment [1] worked out at 79 nM; in experiment [2], 858 nM.

As for `COc1cc([C@@H]2c3cc4c(cc3[C@H](OC(=O)c3nccc5ccccc35)[C@H]3COC(=O)[C@H]23)OCO4)cc(OC)c1OC`, the “Ratio IC50” value in the experiment with K562 amounted to 2.765. Further, the IC50 was found to be 64 nM in experiment [1] and 177 nM in experiment [2].

`COc1cc([C@@H]2c3cc4c(cc3[C@H](OC(=O)c3nn(C)c5ccccc35)[C@H]3COC(=O)[C@H]23)OCO4)cc(OC)c1OC`: in the experiment with K562, the “Ratio IC50” value was determined as 2.446. In addition, the IC50 is 47 nM in experiment [1] and 115 nM in experiment [2].

On to `COc1cc([C@@H]2c3cc4c(cc3[C@H](OC(=O)c3cnc5ccccc5n3)[C@H]3COC(=O)[C@H]23)OCO4)cc(OC)c1OC`, for which the “Ratio IC50” value in the experiment on K562 is given as 1.545; in experiment [3] it was 65.029; in experiment [4] it was 552.323. Moreover, the concentration for half-maximal inhibition (IC50) in experiment [1] came out at 22 nM; in experiment [2] it was 34 nM.

Regarding `COc1cc([C@@H]2c3cc4c(cc3[C@H](OC(=O)c3cnn(C)c3)[C@H]3COC(=O)[C@H]23)OCO4)cc(OC)c1OC`, the “Ratio IC50” value with K562 is recorded as 2.673. Besides, the half-maximal inhibitory concentration (IC50) in experiment [1] was determined as 52 nM; in experiment [2], 139 nM.

On to `COc1cc([C@@H]2c3cc4c(cc3[C@H](OC(=O)c3cc(C)on3)[C@H]3COC(=O)[C@H]23)OCO4)cc(OC)c1OC`, for which the “Ratio IC50” value with K562 is on record as 2.08. The IC50 in experiment [1] worked out at 25 nM; in experiment [2], 52 nM.

Take `COc1cc([C@@H]2c3cc4c(cc3[C@H](OC(=O)c3cc5ccccc5s3)[C@H]3COC(=O)[C@H]23)OCO4)cc(OC)c1OC`: the “Ratio IC50” value with K562 was found to be 2.532. The 50% inhibitory concentration (IC50) in experiment [1] worked out at 184 nM; in experiment [2], 466 nM.

As to `COc1cc([C@@H]2c3cc4c(cc3[C@H](OC(=O)c3ccc5nc(C)ccc5c3)[C@H]3COC(=O)[C@H]23)OCO4)cc(OC)c1OC`, the “Ratio IC50” value in the experiment on K562 is 0.953. For the same molecule, the half-maximal inhibitory concentration (IC50) in experiment [1] stood at 64 nM; in experiment [2], 61 nM.

Take `COc1cc([C@@H]2c3cc4c(cc3[C@H](OC(=O)c3cscn3)[C@H]3COC(=O)[C@H]23)OCO4)cc(OC)c1OC`: the “Ratio IC50” value in the experiment with K562 worked out at 2.114. The half-inhibitory concentration (IC50) came to 35 nM in experiment [1] and 74 nM in experiment [2].

With `COc1cc([C@@H]2c3cc4c(cc3[C@H](OC(=O)c3cn(C5CC5)c5cc(Cl)c(F)cc5c3=O)[C@H]3COC(=O)[C@H]23)OCO4)cc(OC)c1OC`, the “Ratio IC50” value in the experiment with K562 amounted to 1.803. Moreover, the IC50 amounted to 305 nM in experiment [1] and 550 nM in experiment [2].

Take `COc1cc([C@@H]2c3cc4c(cc3[C@@H](O[C@@H]3O[C@@H]5CO[C@@H](C)O[C@H]5[C@H](O)[C@H]3O)[C@H]3COC(=O)[C@H]23)OCO4)cc(OC)c1O` [ETOPOSIDE]: the “Ratio IC50” value with K562 is recorded as 6.408. The IC50 was 345 nM in experiment [1] and 2210 nM in experiment [2].
